Experimental data as given in paper PMC11243320, “Tailoring Fibroblast-Activation Protein Targeting for Theranostics: A Comparative Preclinical Evaluation of the ^68Ga- and ^177Lu-Labeled Monomeric and Dimeric Fibroblast-Activation Protein Inhibitors DOTA.SA.FAPi and DOTAGA.(SA.FAPi)2” (Molecules, 2024).

Tested on: PC3 tumor-bearing mice
Test: Ex vivo biodistribution of 68Ga-labeled radiotracers in PC3 xenografts
Protocol: U87MG and PC3 tumor-bearing mice: Female athymic BALB/c (6 weeks/16–20 g) and male athymic BALB/c nude mice (6 weeks/20–25 g) were implanted with U87MG or PC3 cells (5 × 10^6/100 µL PBS) into their right shoulder, respectively. The animals were used for biodistribution and PET/SPECT/CT imaging studies (Animal License No: BE98/2021).
Ten pmol (0.08–0.1 MBq) of the radiotracers in 100 µL of NaCl 0.9% were injected intravenously into the tail vein of U87MG and PC3 tumor-bearing mice and biodistribution studies were conducted at 1, 2, and 3 h after injection.
Saturation Binding Studies […]
The radioactivity of the culture medium, the receptor bound , the internalized and the externalized fractions were measured in a γ -counter. The externalized fraction of radioactivity was ex-pressed as the percentage of the total internalized amount.
[68Ga]Ga -DOTA.SA.FAPi and [ 68Ga]Ga -DOTAGA.(SA.FAPi) 2
Ten pmol ( 0.08 –0.1 MBq) of [68Ga]Ga -monomer and [ 68Ga]Ga -dimer in 100 µ L of NaCl 0.9% were injected intravenously into the tail vein of U87MG or PC3 tumor bearing mice . The PC3 tumor-bearing mice were used between the 15th and 17th day after the xenograft implantation and the size was 281 ± 75 mm3. The U87MG tumor-bearing mice were used between the 7th and 9th day after the implantation and the size was 210 ± 34 mm3. Animals were terminally anesthetized by intraperitoneal injection of an overdose of pento-barbital natrium (150 mg/kg; Streuli Pharma SA, Uznach, Switzerland) at 1, 2 and 3 h after injection of the radiotracers. The organs of interest were dissected and weighed, and the radioactivity in the tissue samples […]
was counted in a γ-counter. Biodistribution data are given as the percent of injected activity per gram of tissue (% IA/g) and as means ± SD (n = 4). […]
each radiotracer along with 20 nmol of UAMC1110 (total injected volume: 100 µL) and biodistribution stud-ies were performed 2 h after injection.
[177Lu]Lu-DOTA.SA.FAPi and [177Lu]Lu-DOTAGA.(SA.FAPi)2
Ten pmol (0.06-0.08 MBq) of [177Lu]Lu-monomer and [177Lu]Lu-dimer in 100 µL of NaCl 0.9% were injected intravenously into the tail vein of PC3 tumor-bearing mice. The PC3 tumor-bearing mice were used between the 15th and 17th day after the xenograft implantation and its size was 281 ± 75 mm3. Animals were terminally anesthetized by intraperitoneal injection of an overdose of pentobarbital natrium (150 mg/kg; Streuli Pharma SA, Uznach, Switzerland) 1, 4, 24 and 48 h after the injection of [177Lu]Lu-DOTA.SA.FAPi and at 4, 24, 48, 72 and 96 h after the injection of [177Lu]Lu-DOTAGA.(SA.FAPi)2. The organs of interest were dissected and weighed, and the radioactivity in the tissue samples was counted in a γ-counter. The biodistribution data are given as the percent of injected activity per gram of tissue (% IA/g) and as means ± SD (n = 4). […]
blood pools or if they were necrotic. Both tumor types were “clean” without extended vascularization; there […]
Small Animal Imaging Studies
PET images were obtained after injection of 200 pmol of [68Ga]Ga-DOTA.SA.FAPi and [68Ga]Ga-DOT-AGA.(SA.FAPi)2 (1.0–1.6 MBq/100 μL) into U87MG or PC3 xenografts at 1, 2 and 3 h after injection. Static imaging was acquired for a time period between 10 and 45 min at 1, 2 and 3 h post injection, respectively.
To visualize the extent of FAP-specific tumor uptake, PET/CT blocking studies were performed as described above, and static scans were obtained for 30 min 2 h after the injection of the radiotracer along with the blocking agent (20 nmol).
PET images were corrected for gallium-68 decay and reconstructed with 12 iterations of the maximum a posteriori (MAP) algorithm using a voxel size of 0.25 mm. No correction was applied for attenuation. In addition, a point spread function iterative deconvolution was applied. The images were normalized, filtered using a Gaussian 3D algorithm with a 1.3 mm isotropic kernel and generated using PMOD software. The CT was carried out using step and shoot mode and employed 45 kVp and 400 uA as settings. The images […]

[1] = 2 h blocking (20 nmol UAMC1110)

Structure (SMILES): N#C[C@@H]1CC(F)(F)CN1C(=O)CNC(=O)c1ccnc2ccc(OCCCCNc3c(NCCNC(=O)CN4CCN(CC(=O)[O-])CCN(CC(=O)[O-])CCN(CC(=O)[O-])CC4)c(=O)c3=O)cc12.[68Ga+3] [[^68Ga]Ga-DOTA.SA.FAPi]
- Biodistribution Blood (1 h): 8.5± 0.6 % IA/g
- Biodistribution Bone (1 h): 3.4±0.4 % IA/g
- Biodistribution Heart (1 h): 4.6±1.6 % IA/g
- Biodistribution Intestine (1 h): 2.7±0.2 % IA/g
- Biodistribution Kidney (1 h): 3.6±0.3 % IA/g
- Biodistribution Liver (1 h): 2.4±0.1 % IA/g
- Biodistribution Lung (1 h): 3.4±0.6 % IA/g
- Biodistribution Muscle (1 h): 2.5±0.2 % IA/g
- Biodistribution PC3-Tumor (1 h): 6.1±0.7 % IA/g
- Biodistribution Pancreas (1 h): 8.9±1.0 % IA/g
- Biodistribution Spleen (1 h): 2.5±0.1 % IA/g
- Biodistribution Stomach (1 h): 2.0±0.4 % IA/g
- Tumor/Blood ratio (1 h): 0.7±0.03
- Tumor/Liver ratio (1 h): 1.8±0.1
- Tumor/Muscle ratio (1 h): 2.4±0.4
- Tumor/Pancreas ratio (1 h): 0.7±0.1
- Biodistribution Blood (2 h): 4.8±0.3 % IA/g
- Biodistribution Bone (2 h): 2.0±0.2 % IA/g
- Biodistribution Heart (2 h): 1.9±0.1 % IA/g
- Biodistribution Intestine (2 h): 2.6±0.2 % IA/g
- Biodistribution Kidney (2 h): 2.7±0.2 % IA/g
- Biodistribution Liver (2 h): 2.7±0.2 % IA/g
- Biodistribution Lung (2 h): 2.2±0.1 % IA/g
- Biodistribution Muscle (2 h): 2.6±0.3 % IA/g
- Biodistribution PC3-Tumor (2 h): 5.4±2.4 % IA/g
- Biodistribution Pancreas (2 h): 6.4±0.5 % IA/g
- Biodistribution Spleen (2 h): 1.7±0.1 % IA/g
- Biodistribution Stomach (2 h): 1.4±0.1 % IA/g
- Tumor/Blood ratio (2 h): 1.2±0.6
- Tumor/Liver ratio (2 h): 2.1±0.1
- Tumor/Muscle ratio (2 h): 2.1±1.2
- Tumor/Pancreas ratio (2 h): 0.9±0.4
- Biodistribution Blood [1]: 0.3±0.1 % IA/g
- Biodistribution Bone [1]: 0.2±0.1 % IA/g
- Biodistribution Heart [1]: 0.1±0.05 % IA/g
- Biodistribution Intestine [1]: 0.4± 0.1 % IA/g
- Biodistribution Kidney [1]: 1.2±0.2 % IA/g
- Biodistribution Liver [1]: 0.2±0.04 % IA/g
- Biodistribution Lung [1]: 0.3±0.1 % IA/g
- Biodistribution Muscle [1]: 0.1±0.06 % IA/g
- Biodistribution PC3-Tumor [1]: 0.5±0.1 % IA/g
- Biodistribution Pancreas [1]: 0.1±0.06 % IA/g
- Biodistribution Spleen [1]: 0.1± 0.04 % IA/g
- Biodistribution Stomach [1]: 0.1±0.07 % IA/g
- Biodistribution Blood (3 h): 4.7±0.4 % IA/g
- Biodistribution Bone (3 h): 3.4±2.4 % IA/g
- Biodistribution Heart (3 h): 2.0±0.1 % IA/g
- Biodistribution Intestine (3 h): 2.4±0.4 % IA/g
- Biodistribution Kidney (3 h): 2.4±0.4 % IA/g
- Biodistribution Liver (3 h): 2.6±0.4 % IA/g
- Biodistribution Lung (3 h): 2.1±0.3 % IA/g
- Biodistribution Muscle (3 h): 2.3±0.2 % IA/g
- Biodistribution PC3-Tumor (3 h): 5.0±0.2 % IA/g
- Biodistribution Pancreas (3 h): 5.1±1.1 % IA/g
- Biodistribution Spleen (3 h): 1.8±0.5 % IA/g
- Biodistribution Stomach (3 h): 1.6±0.1 % IA/g
- Tumor/Blood ratio (3 h): 1.8±0.2
- Tumor/Liver ratio (3 h): 3.3±0.5
- Tumor/Muscle ratio (3 h): 3.8±0.4
- Tumor/Pancreas ratio (3 h): 1.7±0.4
